Data as given in patent publication US20110129917A1, “CELL ISOLATION METHOD” (priority 2007, published 2011).

Test system: microorganisms in soil
Test: effect of cell enlargers upon microorganisms in rice paddy soil, observed under a fluorescent microscope after CFDA-AM staining
Type: cell-based
Settings: three cell enlargers added together: nalidixic acid 80 μg/g of soil, pipemidic acid 40 μg/g, piromidic acid 40 μg/g; anaerobic, 30° C., 24 hours; comparison without enlargers showed only round or oval cells
Protocol: As a laboratory model of rice paddy soil where denitrification is active, a 10 mL vial bottle was filled with slightly less than 10 mL of soil (rice paddy soil from Tanashi Farm of the University of Tokyo), a selective substrate of denitrificans (sodium succinate, approximately 5 g/L) and sodium nitrate (approximately 5 g/L) and the gas phase was completely substituted with argon-acetylene. Culture was then carried out anaerobically at 30° C. […] A fluorescent dye CFDA-AM (final concentration 50 μM) was added to the cultured product and the product was observed under a fluorescent microscope (excited in blue, irradiated with blue light) (FIG. 3(b)). In combination, as a comparative example, the fluorescent dye was added and observation was carried out under a microscope with no cell enlargers added (FIG. 3(a)).

SMILES	effect of cell enlargers upon microorganisms in soil (cell shape and size under the microscope)
CCn1cc(C(=O)O)c(=O)c2cnc(N3CCNCC3)nc21 [pipemidic acid]	elongated and larger cells were also observable
CCn1cc(C(=O)O)c(=O)c2cnc(N3CCCC3)nc21 [piromidic acid]	elongated and larger cells were also observable
